Data published in PubChem BioAssay (NCI).
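Dose response: 5 concentrations. Exposure: 48 h. Format: 96-well plates. Endpoint: linear interpolation; highest concentration if not reached. GI50 is the concentration that inhibits growth by half. At the TGI there is no net growth.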

How the values were obtained:
Experiment in all cases: inhibition of tumour cell growth, NCI panel, 48 h
[1] = system: A498 renal
[2] = system: SK-MEL-28 melanoma
[3] = system: UACC-62 melanoma
[4] = system: HCC-2998 colon
[5] = system: HS 578T breast
[6] = system: HT29 colon
[7] = system: MALME-3M melanoma
[8] = system: LOX IMVI melanoma
[9] = system: PC-3 prostate
[10] = system: K-562 leukemia
[11] = system: MDA-MB-231 breast
[12] = system: HOP-92 NSCLC
[13] = system: SK-MEL-5 melanoma
[14] = system: SR leukemia
[15] = system: A549 NSCLC
[16] = system: OVCAR-8 ovarian
[17] = system: RXF 393 renal
[18] = system: NCI/ADR-RES ovarian
[19] = system: SF-295 CNS
[20] = system: SNB-19 CNS
[21] = system: NCI-H226 lung
[22] = system: CCRF-CEM leukemia
[23] = system: EKVX NSCLC
[24] = system: COLO 205 colon
[25] = system: MOLT-4 leukemia
[26] = system: BT-549 breast
[27] = system: HOP-62 NSCLC
[28] = system: HCT-116 colon
[29] = system: KM12 colon

C[C@]12CC[C@@H]3c4cc(OC(F)F)c(OS(N)(=O)=O)cc4CC[C@H]3[C@@H]1CC[C@@H]2O
GI50 [1]: 0.199 µM
TGI [1]: 0.86 µM
GI50 [2]: 1.43 µM
TGI [2]: 24.6 µM
GI50 [3]: 0.299 µM
TGI [3]: 16.7 µM
GI50 [4]: 1.04 µM
TGI [4]: 14 µM
GI50 [5]: 0.366 µM
TGI [5]: 30.2 µM
GI50 [6]: 0.371 µM
TGI [6]: 13.9 µM
GI50 [7]: 0.485 µM
TGI [7]: 21.6 µM
GI50 [8]: 0.428 µM
TGI [8]: 15.3 µM
GI50 [9]: 0.537 µM
TGI [9]: 47.8 µM
GI50 [10]: 0.364 µM
TGI [10]: > 100 µM
GI50 [11]: 1.62 µM
TGI [11]: 15.5 µM
GI50 [12]: 1.64 µM
TGI [12]: 28.6 µM
GI50 [13]: 0.315 µM
TGI [13]: 3.56 µM
GI50 [14]: 0.303 µM
TGI [14]: > 100 µM
GI50 [15]: 1.75 µM
TGI [15]: > 88.2 µM
GI50 [16]: 0.848 µM
TGI [16]: 60.7 µM
GI50 [17]: 0.139 µM
TGI [17]: 0.589 µM
GI50 [18]: 0.601 µM
TGI [18]: 16.7 µM
GI50 [19]: 0.252 µM
TGI [19]: 1.03 µM
GI50 [20]: 0.532 µM
TGI [20]: 25.6 µM
GI50 [21]: 1.8 µM
TGI [21]: 21.8 µM
GI50 [22]: 0.398 µM
TGI [22]: > 100 µM
GI50 [23]: 0.709 µM
TGI [23]: 54.8 µM
GI50 [24]: 0.653 µM
TGI [24]: 13.9 µM
GI50 [25]: 0.641 µM
TGI [25]: > 64.4 µM
GI50 [26]: 0.901 µM
TGI [26]: 16.9 µM
GI50 [27]: 0.592 µM
TGI [27]: 27.3 µM
GI50 [28]: 0.434 µM
TGI [28]: 15 µM
GI50 [29]: 0.422 µM
TGI [29]: 16.6 µM
